Reference: PubChem BioAssay AID1996
In brackets after ≈: the same amount, converted by molar mass.

settings: buffer; pH 7.4; 200.0 µM

Compound | solubility kinetic [µg/mL]
Cc1cc(C)cc(NC(=O)CN2CCN(C(=O)C3CCCO3)CC2)c1 (centres undefined) | > 51.8
Nc1ccc(C(=O)Nc2nccs2)cc1 | > 32.9
CC1CC(Nc2ccccc2)c2ccccc2N1C(=O)c1ccco1 (centres undefined) | 13.2 (≈ 39.7 µM)
Cc1cccn2c(=O)c(/C=C(\C#N)C(N)=O)c(Oc3ccccc3)nc12 | 7.9 (≈ 22.8 µM)
CS(=O)(=O)N(CC(=O)Nc1ccc(F)cc1)C1CCCCC1 | 45.3 (≈ 138 µM)
O=C(c1ccco1)N1CCN(Cc2nc3ccccc3[nH]2)CC1 | 41.2 (≈ 133 µM)
CCC(CC)NC(=O)C1CC(=O)N(CCc2ccc(F)cc2)C1 (centres undefined) | > 48.1
COc1ccc(NCc2ccsc2)cc1 | 31.4 (≈ 143 µM)
CC1(C)CC2(CCO1)C(Nc1ccccc1)=NC(=S)N2CC(N)=O (centres undefined) | > 52
COc1ccc(CC(=O)Nc2cccnc2)cc1 | > 36.3
Cc1ccc(C(=O)Nc2cccc3ccccc23)o1 | 25.9 (≈ 103 µM)
CCOC(=O)C1CCN(C(=O)c2ccc(OC3CCN(C(=O)COC)CC3)cc2)CC1 | 45 (≈ 104 µM)
Cc1ccc2oc(=O)n(CCOc3ccccc3C)c2c1 | < 0.6
COc1ccc(-c2nc3ccccc3nc2-c2ccccc2)cc1OC | 11 (≈ 32.1 µM)
CC(NC(=O)C(C)N1C(=O)c2cccc([N+](=O)[O-])c2C1=O)c1ccccc1 (centres undefined) | 28.3 (≈ 77 µM)
O=C(CSCc1c(F)cccc1Cl)NCCc1ccccc1 | 40.2 (≈ 119 µM)
Cc1ccc(Cl)c(OCC(=O)Nc2ccccc2C(=O)NC2CC2)c1 | 5.9 (≈ 16.4 µM)
COc1ccc(-c2ccnc(-c3ccncc3)n2)cc1 | > 39.5
CC(C)CNS(=O)(=O)c1ccc(CCC(=O)NCCc2ccccc2)cc1 | 16.3 (≈ 42 µM)
O=C(O)COCC(=O)NCc1nc(-c2ccc(C(F)(F)F)cc2)no1 | > 53.9
O=C(Cn1c(CO)nc2ccccc21)NCc1ccc2c(c1)OCO2 | > 50.9
Cc1nc(CC(=O)c2ccc(O)c(C)c2O)cs1 | 36.7 (≈ 139 µM)
CCOc1ccc(-c2ncncc2-c2ccccc2OC)c(O)c1 | 34 (≈ 105 µM)
Cc1ccc(-n2c(C)c(C)c3c(N)ncnc32)cc1 | 16.1 (≈ 63.8 µM)

Compound | solubility kinetic [µg/mL]
c1cnc2c(c1)ccc1ncccc12 | > 27
O=C(O)c1ccc(Cl)c(NCc2ccncc2)c1 | > 39.4
O=c1c(/C=N/O)coc2ccc(Cl)cc12 | 8.2 (≈ 36.7 µM)
CN(C)c1ccc(Nc2ccc([N+](=O)[O-])cn2)cc1 | 1 (≈ 3.87 µM)
C=CCOc1ccccc1CN1CCC(Cc2ccccc2)CC1 | 31.7 (≈ 98.6 µM)
O=C(CCCOc1ccccc1)Nc1cccc(S(=O)(=O)N2CCOCC2)c1 | 57.6 (≈ 142 µM)
CCCC(=O)Nc1cc2c3c(c1)C(C)C(=O)N3CCC2 (centres undefined) | 38 (≈ 140 µM)
CCCC1c2ccsc2CCN1C(=S)NC (centres undefined) | 29.8 (≈ 117 µM)
Cc1cccnc1Nc1ncnc(N)c1[N+](=O)[O-] | 36.3 (≈ 147 µM)
CCC(C(=O)O)n1cnc2scc(-c3ccc(C)c(C)c3)c2c1=O (centres undefined) | > 51.4
CCc1nc(NC(=O)c2sc(C)nc2C)sc1C(=O)OC | > 48.8
COC(=O)Cn1c2ccc(Cl)cc2c2nc(C)sc21 | 35.3 (≈ 120 µM)
CC(C)(C)N(CC#CCC(O)(c1ccccc1)c1ccccc1)CCO | 47.1 (≈ 134 µM)
Cc1cccc(-n2c(C)cc(/C=C3\NC(=O)NC3=O)c2C)c1 | 1.8 (≈ 6.09 µM)
COc1ccc([N+](=O)[O-])c(OC)c1C(=O)NC(=O)Nc1nc(C)nc(C)n1 | > 56.4
COc1ccc(C(=O)/C=C/c2cccnc2)c(OC)c1 | > 40.4
O=C(OCC(=O)N1CCc2ccccc21)[C@@H]1CC(O)CN1S(=O)(=O)c1ccc(Cl)cc1 (some centres undefined) | 50.4 (≈ 108 µM)
CCOc1ccc(C2=CSC3=NCCN23)cc1Cl | 25 (≈ 89 µM)
CC1=C(C(=O)NCc2ccc(Cl)cc2)C2(CCC(C)CC2)OC1=O (centres undefined) | 4.3 (≈ 12.4 µM)
CNC(=O)CN1C(=O)NC(c2ccccc2)(c2ccccc2)C1=O | > 48.5
O=C(O)CC1(CC(=O)NCc2ccncc2)CCCCC1 | > 43.6
CC(C)C(=O)Nc1c(-c2ccccc2F)c(=O)c2ccccc2n1C | 49.4 (≈ 146 µM)
Cc1cccc(NC(=O)/C(C#N)=C/c2ccc(Cl)cc2)n1 | 0.6 (≈ 2.02 µM)
Cc1cc(=O)oc2cc(NC(=O)Cc3ccccc3)ccc12 | 1.1 (≈ 3.75 µM)

Compound | solubility kinetic [µg/mL]
Cc1ccc(/C=C/C(=O)OCC(=O)Nc2cccnc2Cl)o1 | 11.8 (≈ 36.8 µM)
CSc1ncccc1C(=O)Nc1cccc(C)n1 | > 38.9
O=c1[nH]c(O)c(C=Nc2ccc(Cl)c(C(F)(F)F)c2)c(=O)[nH]1 | 1.7 (≈ 5.1 µM)
CC1CC(C)CN(c2ncnc3c2cnn3C)C1 (centres undefined) | > 36.8
COc1ccccc1C(=O)c1nc2ccccc2n1C | 19.7 (≈ 74 µM)
CSCCC(NS(=O)(=O)/C=C/c1ccccc1)C(=O)O (centres undefined) | > 47.3
COC(=O)CSc1nc(NC(C)C)nc(N(C)C)n1 | 36.6 (≈ 128 µM)
Cc1cc2c(cc1S(=O)(=O)N1CCOCC1)NC(=O)CO2 | > 46.9
N#Cc1cccnc1N1CCN(C(=O)COCC(=O)O)CC1 | 41 (≈ 135 µM)
CCOC(=O)C(=CNc1ccc(S(N)(=O)=O)cc1)C(=O)OCC | 37.8 (≈ 110 µM)
CNC(=S)N1CCn2cccc2C1c1ccc(F)cc1 (centres undefined) | 40.8 (≈ 141 µM)
COC(=O)NC1(C(F)(F)F)C(=O)Nc2c1c(=O)n(C)c(=O)n2C (centres undefined) | 47.3 (≈ 141 µM)
CCN(CC)Cc1oc(-c2ccccc2)cc1C(=O)O | 32.2 (≈ 118 µM)
c1ccc(P(c2ccccn2)c2ccccn2)cc1 | > 39.6
O=C(Sc1ccc(Cl)cc1)c1ccccn1 | 1.7 (≈ 6.81 µM)
Clc1ncccc1OCc1ccccc1 | 14.6 (≈ 66.5 µM)
COc1ccccc1N1CCN(CC(=O)c2c[nH]c3ccccc23)CC1 | 6.6 (≈ 18.9 µM)
Cc1cccnc1NC(=S)NCc1ccco1 | 31.4 (≈ 127 µM)
COc1ccc(C(=O)Nc2cc(C)on2)cc1OC | 26.9 (≈ 103 µM)
CCN(CC)c1ccc(C(=O)OCc2c(C)noc2C)cc1 | 2.8 (≈ 9.26 µM)
CC(=O)c1c(C)[nH]c(C(=O)OCC(=O)Nc2cccnc2Cl)c1C | > 52.5
CCOc1ccccc1/C=N/OCC(=O)NCc1ccc(F)cc1 | 32.9 (≈ 99.6 µM)
Cc1cccc(C(=O)NCC(=O)OCC(=O)N2CCCCC2)c1 | 46 (≈ 144 µM)
O=C(CSc1cccc[n+]1[O-])c1ccc(Cl)s1 | 38.3 (≈ 134 µM)

Compound | solubility kinetic [µg/mL]
COc1cccc(C(=O)NCCNC(=O)c2ccccn2)c1 | > 44.9
O=C1/C(=C/c2cccnc2)SC(=S)N1c1ccc(O)cc1 | 0.9 (≈ 2.86 µM)
COc1ccc(-c2cc(C(=O)NN3CCOCC3)c3ccccc3n2)cc1OC | > 59
CCSc1nc2sc3c(c2c(=O)n1-c1ccccc1)CCN(C(C)C)C3 | 37 (≈ 96 µM)
CC1(C)Cc2c(c(N3CCCC3)nc3sc4c(N5CCNCC5)ncnc4c23)CO1 | 28.6 (≈ 67.4 µM)
Cc1ccc(O)c(NC(=O)Cc2ccc3ccccc3c2)c1 | 6.5 (≈ 22.3 µM)
CC(=O)c1cccc(NC(=S)Nc2cccc3ccccc23)c1 | 10.6 (≈ 33.1 µM)
CCCC1(C(=O)OCC)NC(c2ccco2)C2C(=O)N(C)C(=O)C21 (centres undefined) | 46.2 (≈ 138 µM)
CCOCCOC(=O)NCCCCCCNC(=O)OCCOCC | 38.2 (≈ 110 µM)
COc1ccc(CNC(=O)c2ccncc2)cc1 | > 36.3
CC1CCCC(NC(=O)COc2ncnc3ccccc23)C1C (centres undefined) | 44.6 (≈ 142 µM)
O=C(Nc1ccccc1NS(=O)(=O)c1ccc(F)cc1)C1CCC1 | 21.1 (≈ 60.6 µM)
COc1cc2c(cc1OC)C(c1cccc(F)c1)CC(=O)N2 (centres undefined) | > 45.2
N#Cc1cccnc1Oc1ccccc1 | 25.3 (≈ 129 µM)
CC(=O)c1cccc(NC(=O)COC(=O)CCC(=O)c2ccc(F)cc2)c1 | 53.9 (≈ 145 µM)
O=C(O)c1ccc(NC(=O)c2cc3ccccc3o2)cc1 | > 42.2
COc1ccc(C(=O)N2CCN(c3ccccc3OC)CC2)cc1 | > 49
O=C1NC(=O)/C(=C/c2cc3c(cc2Br)OCO3)S1 | > 49.2
C=CCN(Cc1ccc(OC)c(OC)c1)C(=O)N1CCOCC1 | > 48.1
CC(Sc1ccc(S(=O)(=O)N2CCOCC2)cn1)c1ccccc1Cl (centres undefined) | 5.9 (≈ 14.8 µM)
COC(=O)C1CCN(C(=O)c2cc(-c3ccco3)nc3ccccc23)CC1 | > 54.7
O=C(CN1C(=O)NC2(CCOc3ccccc32)C1=O)c1ccc(Cl)cc1 (centres undefined) | 1.3 (≈ 3.51 µM)
Cc1ccc(C(=O)NCC(=O)N2CCc3ccccc3C2)cc1C | > 48.4
CC(=O)c1cccc(NC(=O)COC(=O)C2CCCN2C(=O)c2cccs2)c1 (centres undefined) | 6.5 (≈ 16.2 µM)

Compound | solubility kinetic [µg/mL]
O=C(NC(=S)Nc1ccccc1[N+](=O)[O-])c1ccccc1Cl | 1.2 (≈ 3.57 µM)
CCN(C(=O)COC(=O)c1ccc([N+](=O)[O-])o1)c1cccc2ccccc12 | 33.7 (≈ 91.5 µM)
Cc1[nH]c2ccccc2c1C(=O)COC(=O)c1ccccc1O | 4.6 (≈ 14.9 µM)
O=C(COc1ccccc1C(=O)O)Nc1cccc2ccccc12 | > 48.2
Cc1nc2sc(C(=O)OC(C)C)c(N)c2c(C)c1C | < 0.3
COCCNC(=O)C(=O)Nc1cc2c3c(c1)CC(=O)N3CCC2 | 42.3 (≈ 133 µM)
CCOc1ccc(Nc2cc(C)nc3ccc(C)cc23)cc1 | 40 (≈ 137 µM)
CC(C)[C@H](NC(=O)c1cccc(S(=O)(=O)N2CCOCC2)c1)C(=O)NCc1ccc(F)cc1 | 8 (≈ 16.8 µM)
N#C/C(=C\Nc1ccc(F)c(Cl)c1)C(=O)C1CC1 | 1.7 (≈ 6.42 µM)
Cc1cc(C)cc(OC(C)C(=O)Nc2ccc3c(c2)n(C)c(=O)n3C)c1 (centres undefined) | 37.9 (≈ 107 µM)
NC(=O)C1CCCN(C(=O)CCC(=O)c2cccs2)C1 (centres undefined) | > 44.2
Cc1cc(C)n2nc(SCC(=O)N3CCCC3)nc2n1 | > 43.7
O=C1CSC(=Nc2cccc([N+](=O)[O-])c2)N1 | > 35.6
Cc1cc(C)cc(NC(=S)NC(=O)Cc2ccccc2)c1 | 0.5 (≈ 1.68 µM)
CC(NC(=O)CNC(=O)c1ccco1)c1ccccc1 (centres undefined) | > 40.8
O=C(O)C1C2c3ccccc3C(c3ccccc32)C1C(=O)Nc1ccccc1 (centres undefined) | > 55.4
CC1NC(=O)NC1CCCCCC(=O)Nc1ccc(F)c(Cl)c1 (centres undefined) | > 51.3
O=C(C1CCC(=O)N1Cc1cccs1)N1CCOCC1 (centres undefined) | > 44.2
Cc1cccnc1NC(=O)C1COc2ccccc2O1 (centres undefined) | 40.1 (≈ 148 µM)
Cn1c(=O)n(C)c2cc(NC(=O)c3ccc(F)cc3)c(Br)cc21 | 8.2 (≈ 21.7 µM)
Cc1cc(C)cc(NC(=O)N2CCc3ccccc3C2)c1 | 1.3 (≈ 4.64 µM)
O=C(COC(=O)CCC1CCCC1)Nc1ccc(F)cc1Cl | 3.4 (≈ 10.4 µM)
COc1cc(NS(=O)(=O)c2ccc(NC(=O)/C=C/C(=O)O)cc2)nc(OC)n1 | > 61.3
